Results taken from PubChem BioAssay AID2060338 (Molecular Pharmacology Branch, DTP, NCI, 2025).
Values joined by “and” are separate entries in the source; they are usually repeats but may differ in a detail not shown here. Equal entries are not always repeated.

Test system: 556581-035-R-J1-PDC spheroids with HUVEC/MSC, viability
Assay: Anticancer human tumor 556581-035-R-J1-PDC patient-derived ovarian carcinoma cell line growth inhibition [IpAb]
Settings: for viability, T/C: stronger effect = lower value
Description: Combinatorial screen of targeted agents with ipatasertib and abemaciclib in multi-cell type tumor spheroids
A high-throughput screen of multi-cell type tumor spheroids was designed to identify active combinations of targeted small molecules and ipatasertib or abemaciclib. Complex spheroids include a stromal component modeled by human endothelial cells (HUVEC) and fibroblasts modeled by human mesenchymal stem cells (MSCs). The concentration ranges selected for each drug and investigational agent were based upon clinically achievable concentrations if the clinical Cmax of the agent was known.
Compounds. The drugs and investigational agents: ipatasertib (NSC767898), abemaciclib(NSC768073), selumetinib (NSC741078), trametinib (758246), adavosertib (NSC754352), everolimus (NSC733504), sapanisertib (NSC764658), vemurafenib (NSC761431), venetoclax (NSC766270), copanlisib (NSC809693), apelisib (NSC765974), palbociblib (NSC758247), vemurafenib (NSC761431), dabrafenib (NSC764134), ravoxertinib (NSC781343), BMS-387032 (NSC767048), sotorasib (NSC818433), talazoparib (NSC767125) and afursertib (NSC778305), were obtained from the National Cancer Institute (NCI) Developmental Therapeutics Program Chemical Repository. The FDA-approved anticancer drug set is available from the NCI Developmental Therapeutics Program. […] The stock solutions were prepared in dimethyl sulfoxide (DMSO, Sigma-Aldrich, St. Louis, MO, cat. D2650) at 800-fold the tested concentration and stored at -70 degrees C prior to their use. All drugs and investigational agents were tested over a range starting from a high concentration at or near the clinical Cmax and decreasing in half-log increments. If the clinical Cmax for an agent had not been determined, the highest concentration tested was 10 microM.
NCI60 Cell Culture. NCI60 cell lines were obtained from the NCI Developmental Therapeutics Program Tumor Repository. For each lot of cells, the Repository performed Applied Biosystems AmpFLSTR Identifiler testing with PCR amplification to confirm consistency with the published Identifier STR profile for each cell line. Cells were kept in continuous culture for no more than 20 passages. The optimal seeding densities for each of the cell lines at each time point assessed were determined prior to performing the concentration response studies. Briefly, the NCI60 human tumor lines were grown as monolayers in RPMI 1640 medium supplemented with 10% FBS and 2 mmol/L L-glutamine.
An additional 9 lines were from the NCI60 cell line panel including MDA-MB-231 breast carcinoma, MDA-MB-468 breast carcinoma, MCF7 breast carcinoma, Hs578T breast carcinoma, MALME-3M melanoma, SK-MEL-2 melanoma, SK-OV-3 ovarian carcinoma, DU-145 prostate carcinoma, PC-3 prostate carcinoma, all cell lines along with major genetic alterations are listed on Table 2. Pooled donor human umbilical vein endothelial cells (HUVEC, Lonza, cat. CC-2519) and human mesenchymal stem cells (hMSC, Lonza, cat. PT-2501) were purchased from Lonza (Walkersville, MD).
PDMR cell lines were grown in complete medium (DC medium): Dulbecco's modified Eagle's medium (DMEM)/F12 supplemented with 5% fetal bovine serum (FBS), 2 mM L-glutamine, 100 U/mL penicillin and 100 µg/ml streptomycin, 0.4 µg/ml hydrocortisone, 10 ng/ml epidermal growth factor (EGF) recombinant human protein, 24 µg/mL adenine, and 0.1 mg/mL primocin. During culture from frozen stock vials, PDMR cells were cultured in the same medium containing 10 µM Y-27632 (see Table 3). The PDCs were cultured in complete DMEM/F12 media without 10 microM Y-27632 dihydrochloride for at least two passages prior to the screen. The pooled donor HUVEC and hMSC were cultured in endothelial cell growth medium 2 (PromoCell, Heidelberg, Germany, cat. C-22011) and mesenchymal stem cell growth medium 2 (PromoCell, cat. C-28009), respectively. For all experiments, HUVEC and hMSC were used at passages </=5.
[…]

[1] = curve of first compound, second compound 0.1 µM
[2] = curve of first compound, second compound 0.316 µM
[3] = curve of first compound, second compound 1 µM
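Also: spheroids exposed to compounds for 7 days before readout.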

Compound: COc1c(OCCCN2CCOCC2)ccc2c3n(c(=NC(=O)c4cnc(N)nc4)nc12)CCN3
- viability, T/C (compound 0.00316 µM): 72.5% and 103%
- viability, T/C (compound 0.01 µM): 52.7% and 57.6%
- viability, T/C (compound 0.0316 µM): 41.7% and 46.2%
- viability, T/C (compound 0.1 µM): 32.3% and 38.2%
- viability, T/C (compound 0.316 µM): 11% and 11.5%
- viability, T/C (compound 1 µM): 2.47% and 3.86%
- IC50 (curve of compound): 16.3 nM and 24.4 nM

Compound: Cn1cnc2c(F)c(Nc3ccc(Br)cc3Cl)c(C(=O)NOCCO)cc21 + CCN1CCN(Cc2ccc(Nc3ncc(F)c(-c4cc(F)c5nc(C)n(C(C)C)c5c4)n3)nc2)CC1
- IC50 (curve of first compound, second compound 0.01 µM): 876 nM
- IC50 (curve of first compound, second compound 0.0316 µM): 1130 nM
- IC50 [1]: 870 nM
- IC50 [2]: 1170 nM
- IC50 [3]: 1210 nM
- viability, T/C (second compound 0.01 µM, first compound 0.00949 µM): 118%
- viability, T/C (second compound 0.01 µM, first compound 0.03 µM): 111%
- viability, T/C (second compound 0.01 µM, first compound 0.0949 µM): 108%
- viability, T/C (second compound 0.01 µM, first compound 0.3 µM): 78.7%
- viability, T/C (second compound 0.01 µM, first compound 0.949 µM): 49%
- viability, T/C (second compound 0.01 µM, first compound 3 µM): 18.8%
- viability, T/C (second compound 0.0316 µM, first compound 0.00949 µM): 102%
- viability, T/C (second compound 0.0316 µM, first compound 0.03 µM): 121%
- viability, T/C (second compound 0.0316 µM, first compound 0.0949 µM): 110%
- viability, T/C (second compound 0.0316 µM, first compound 0.3 µM): 73.4%
- viability, T/C (second compound 0.0316 µM, first compound 0.949 µM): 62.4%
- viability, T/C (second compound 0.0316 µM, first compound 3 µM): 14.3%
- viability, T/C (second compound 0.1 µM, first compound 0.00949 µM): 97.7%
- viability, T/C (second compound 0.1 µM, first compound 0.03 µM): 95.1%
- viability, T/C (second compound 0.1 µM, first compound 0.0949 µM): 98.6%
- viability, T/C (second compound 0.1 µM, first compound 0.3 µM): 84%
- viability, T/C (second compound 0.1 µM, first compound 0.949 µM): 47.4%
- viability, T/C (second compound 0.1 µM, first compound 3 µM): 17.8%
- viability, T/C (second compound 0.316 µM, first compound 0.00949 µM): 102%
- viability, T/C (second compound 0.316 µM, first compound 0.03 µM): 102%
- viability, T/C (second compound 0.316 µM, first compound 0.0949 µM): 104%
- viability, T/C (second compound 0.316 µM, first compound 0.3 µM): 87.1%
- viability, T/C (second compound 0.316 µM, first compound 0.949 µM): 56.8%
- viability, T/C (second compound 0.316 µM, first compound 3 µM): 22.4%
- viability, T/C (second compound 1 µM, first compound 0.00949 µM): 48%
- viability, T/C (second compound 1 µM, first compound 0.03 µM): 62%
- viability, T/C (second compound 1 µM, first compound 0.0949 µM): 59%
- viability, T/C (second compound 1 µM, first compound 0.3 µM): 63.7%
- viability, T/C (second compound 1 µM, first compound 0.949 µM): 58.6%
- viability, T/C (second compound 1 µM, first compound 3 µM): 20.1%

Compound: CC1(C)CCC(CN2CCN(c3ccc(C(=O)NS(=O)(=O)c4ccc(NCC5CCOCC5)c([N+](=O)[O-])c4)c(Oc4cnc5[nH]ccc5c4)c3)CC2)=C(c2ccc(Cl)cc2)C1 + CC(C)NCC(C(=O)N1CCN(c2ncnc3c2C(C)CC3O)CC1)c1ccc(Cl)cc1
- IC50 [1]: 6750 nM
- IC50 [2]: 5540 nM
- IC50 [3]: 3810 nM
- IC50 (curve of first compound, second compound 3.16 µM): 3550 nM
- IC50 (curve of first compound, second compound 10 µM): < 31.6 nM
- viability, T/C (second compound 0.1 µM, first compound 0.0316 µM): 101%
- viability, T/C (second compound 0.1 µM, first compound 0.1 µM): 90.5%
- viability, T/C (second compound 0.1 µM, first compound 0.316 µM): 87.8%
- viability, T/C (second compound 0.1 µM, first compound 1 µM): 104%
- viability, T/C (second compound 0.1 µM, first compound 3.16 µM): 94.1%
- viability, T/C (second compound 0.1 µM, first compound 10 µM): 27.1%
- viability, T/C (second compound 0.316 µM, first compound 0.0316 µM): 87.4%
- viability, T/C (second compound 0.316 µM, first compound 0.1 µM): 76.7%
- viability, T/C (second compound 0.316 µM, first compound 0.316 µM): 87.3%
- viability, T/C (second compound 0.316 µM, first compound 1 µM): 76.1%
- viability, T/C (second compound 0.316 µM, first compound 3.16 µM): 75%
- viability, T/C (second compound 0.316 µM, first compound 10 µM): 24%
- viability, T/C (second compound 1 µM, first compound 0.0316 µM): 71.6%
- viability, T/C (second compound 1 µM, first compound 0.1 µM): 76%
- viability, T/C (second compound 1 µM, first compound 0.316 µM): 66.2%
- viability, T/C (second compound 1 µM, first compound 1 µM): 64.8%
- viability, T/C (second compound 1 µM, first compound 3.16 µM): 58.1%
- viability, T/C (second compound 1 µM, first compound 10 µM): 18.2%
- viability, T/C (second compound 3.16 µM, first compound 0.0316 µM): 57.2%
- viability, T/C (second compound 3.16 µM, first compound 0.1 µM): 62.3%
- viability, T/C (second compound 3.16 µM, first compound 0.316 µM): 58.4%
- viability, T/C (second compound 3.16 µM, first compound 1 µM): 51.7%
- viability, T/C (second compound 3.16 µM, first compound 3.16 µM): 54.4%
- viability, T/C (second compound 3.16 µM, first compound 10 µM): 17.7%
- viability, T/C (second compound 10 µM, first compound 0.0316 µM): 47.7%
- viability, T/C (second compound 10 µM, first compound 0.1 µM): 44.6%
- viability, T/C (second compound 10 µM, first compound 0.316 µM): 44.5%
- viability, T/C (second compound 10 µM, first compound 1 µM): 48.1%
- viability, T/C (second compound 10 µM, first compound 3.16 µM): 42.7%
- viability, T/C (second compound 10 µM, first compound 10 µM): 4.35%
